Data as given in patent US7915291B2, “Hepatitis C virus inhibitors” (Bristol-Myers Squibb Company, priority 2002, dated 2011).
Read-outs that look alike come from different tables or passages of the source.

Experiments:
[1] = target: HCV NS3/4A protease complex, BMS strain (UniProt P27958, C1454S/C1711G, species not given/STRAIN_BMS); test: Recombinant HCV NS3/4A protease complex FRET peptide assay (BMS strain); type: biochemical, HCV genotype 1a
Procedure, shortened: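 Percent inhibition taken from the linear-range fluorescence slope relative to uninhibited control, read kinetically for about 15 min at 25° C. Enzyme (2-3 nM, BMS NS3/4A complex, lysine-tailed, Ni-NTA purified) met compound for 1 min before 2 μM FRET depsipeptide substrate started cleavage.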

[2] = target: T1, porcine pancreatic elastase (PPE) (Sus scrofa, UniProt P00772); test: Specificity assay, PPE; type: biochemical; conditions: 2 hr pre-incubation
T1 construct: purchased Sigma
Protocol: (§1) The specificities of compounds of the present invention were determined against a variety of serine proteases: human leukocyte elastase (HLE), porcine pancreatic elastase (PPE) and human pancreatic chymotrypsin and one cysteine protease: human liver cathepsin B. In all cases a 96-well plate format protocol using colorimetric p -nitroaniline (pNA) substrate specific for each enzyme was used as described previously (Patent WO 00/09543) with some modifications to the serine protease assays. All enzymes were purchased from Sigma while the substrates were from Bachem.
(§2) Each assay included a 2 hr enzyme-inhibitor pre-incubation at RT followed by addition of substrate and hydrolysis to ˜30% conversion as measured on a Spectramax Pro microplate reader. Compound concentrations varied from 100 to 0.4 μM depending on their potency. […]
(§3) The percentage of inhibition was calculated using the formula: [1−((UVinh−UVblank)/(UVctl−UVblank))]×100 […]

human liver cathepsin B = target: T2, human liver cathepsin B (Homo sapiens, UniProt P07858); test: Specificity assay, cathepsin B; type: biochemical; conditions: 2 hr pre-incubation
T2 construct: purchased Sigma; host or cells: human liver (as named)
Protocol: as §1, §2, §3

T1 sequence (P00772 27-266): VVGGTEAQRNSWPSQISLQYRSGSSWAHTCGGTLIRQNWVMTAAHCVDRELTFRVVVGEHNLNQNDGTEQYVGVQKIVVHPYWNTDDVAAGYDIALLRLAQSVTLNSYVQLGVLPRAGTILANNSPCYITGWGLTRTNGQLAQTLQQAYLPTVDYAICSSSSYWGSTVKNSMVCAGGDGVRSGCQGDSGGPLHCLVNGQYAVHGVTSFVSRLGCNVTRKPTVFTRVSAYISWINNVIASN

C=C[C@@H]1C[C@]1(NC(=O)[C@@H]1C[C@@H](Oc2nc(C3CC3)cc3ccccc23)CN1C(=O)[C@@H](NC(=O)OC(C)(C)C)C(C)(C)C)C(=O)NS(=O)(=O)C1CC1 [Compound 34]
IC50 ([1]; BMS strain, read-out: IC50 against the NS3/4A BMS strain in the enzyme assay): 23 nM
IC50 ([1]; NS3/4A BMS strain, read-out: IC50 range): < 100 nM
IC50 [2]: > 200000 nM
IC50 (human liver cathepsin B): > 200000 nM
